The assay has as its target T1, human ΔF508-CFTR (Homo sapiens, UniProt P13569, DEL508-508).
T1 construct: expressed in transfected cells
Briefly: CFTR-YFP High Throughput Assay (HTS YFP flux assay, corrector / potentiator protocols). It counts as cell-based. The settings on record: FRT cells stably expressing human ΔF508-CFTR and YFP-H148Q/I152L; for Emax: normalized to positive control, read-out: Emax (% Efficacy, EMax normalized to the positive control). The protocol: Assays for Detecting and Measuring the Effect of Compounds on dF508-CFTR Channels CFRT-YFP High Throughput Assay: Corrector Assay:
The following protocol is designed to selectively screen small molecule compounds for F508del CFTR corrector activities in the HTS YFP flux assay. In this protocol, the cells are incubated with testing compounds for 24 hours, washed with PBS, stimulated with forskolin and a standard potentiator, and read on a 384-well HTS plate reader, such as the Hamamatsu FDDD-6000.
YFP fluorescence intensity is acquired at high speed before and after iodide buffer is injected to the assay cells. Iodide enters the cells via active CFTR channels in the plasma membrane, and quenches the YFP fluorescence. The rate of fluorescence quenching is proportionally related to the total CFTR activities in the cell membrane. dF508-CFTR corrector accelerates YFP quenching by increasing the number of CFTR molecules in the testing cell plasma membrane.
This method was initially developed for bench top plate readers (Galietta, 2001), and was adapted to the HTS format (Sui, 2010).
Fisher Rat Thyroid (FRT) cells stably expressing both human ΔF508-CFTR and a halide-sensitive yellow fluorescent protein (YFP-H148Q/I152L 25, 22) (Galietta, 2001) were cultured on plastic surface in Coon's modified Ham's F12 medium supplemented with FBS 10%, L-glutamine 2 mM, penicillin 100 U/mL, and streptomycin 100 μg/mL. G418 (0.75-1.0 mg/mL) and zeocin (3.2 μg/mL) were used for selection of FRT cells expressing ΔF508-CFTR and YFP. For primary screening, FRT cells were plated into 384-well black wall, transparent bottom microtiter plates (Costar; Corning Inc.) at a cell density of 20, 000-40, 000 per well. Test compound was applied to the cells at varying concentrations ranging from 2 nM-[…] in either a 2-fold or 3-fold dilution series. Cells were incubated in a cell culture incubator at 37° C. with 5% CO2 for 24-26 h. Assay plates were washed with DPBS media (Thermo, cat#SH30028.02) to remove unbound cells and compound. Stimulation media (25 μL) containing 20 μM Forskolin & 30 μM P3 [6-(Ethyl-phenyl-sulfonyl)-4-oxo-1, 4-dihydro-quinoline-3-carboxylic acid 2-methoxy-benzylamide] in Hams F-12 coon's modified media was added to the plate wells and incubated at room temperature for 60-120 min. 25 μL of HEPES-PBS-I buffer (10 mM HEPES, 1 mM MgCl2, 3 mM KCl, 1 mM CaCl2, 150 mM NaI) was then added and fluorescence quench curves (Excitation 500 nm/Emission 540 nm; exposure 136 ms) were immediately recorded on an FDSS-6000 plate reader (Hamamatsu). Quench rates were derived from least squares fitting of the data (Sui, 2010).
The following protocol is designed to selectively screen small molecule compounds for F508del CFTR potentiator activities in the HTS YFP flux assay. In this protocol, the cells are incubated at 27° C. for 24 hours with homogeneously boosted dF508-CFTR expression in the cell membrane by the low temperature, washed with PBS, stimulated with forskolin, and read on a 384-well HTS plate reader, such as the Hamamatsu […].
YFP fluorescence intensity is acquired at high speed before and after iodide buffer is injected to the assay cells. Iodide enters the cells via active CFTR channels in the plasma membrane, and quenches the YFP fluorescence. The rate of fluorescence quenching is proportionally related to the total CFTR activities in the cell membrane. dF508del-CFTR potentiators accelerate YFP quenching by increasing CFTR activities in the testing cell plasma membrane.
Fisher Rat Thyroid (FRT) cells stably expressing both human ΔF508-CFTR and a halide-sensitive yellow fluorescent protein (YFP-H148Q/I152L 25, 22) (Galietta, 2001) were cultured on plastic surface in Coon's modified Ham's F12 medium supplemented with FBS 10%, L-glutamine 2 mM, penicillin 100 U/mL, and streptomycin 100 μg/mL. G418 (0.75-1.0 mg/mL) and zeocin (3.2 μg/mL) were used for selection of FRT cells expressing ΔF508-CFTR and YFP. […]

T1 sequence (P13569 with tags, fused parts or gaps DEL508-508): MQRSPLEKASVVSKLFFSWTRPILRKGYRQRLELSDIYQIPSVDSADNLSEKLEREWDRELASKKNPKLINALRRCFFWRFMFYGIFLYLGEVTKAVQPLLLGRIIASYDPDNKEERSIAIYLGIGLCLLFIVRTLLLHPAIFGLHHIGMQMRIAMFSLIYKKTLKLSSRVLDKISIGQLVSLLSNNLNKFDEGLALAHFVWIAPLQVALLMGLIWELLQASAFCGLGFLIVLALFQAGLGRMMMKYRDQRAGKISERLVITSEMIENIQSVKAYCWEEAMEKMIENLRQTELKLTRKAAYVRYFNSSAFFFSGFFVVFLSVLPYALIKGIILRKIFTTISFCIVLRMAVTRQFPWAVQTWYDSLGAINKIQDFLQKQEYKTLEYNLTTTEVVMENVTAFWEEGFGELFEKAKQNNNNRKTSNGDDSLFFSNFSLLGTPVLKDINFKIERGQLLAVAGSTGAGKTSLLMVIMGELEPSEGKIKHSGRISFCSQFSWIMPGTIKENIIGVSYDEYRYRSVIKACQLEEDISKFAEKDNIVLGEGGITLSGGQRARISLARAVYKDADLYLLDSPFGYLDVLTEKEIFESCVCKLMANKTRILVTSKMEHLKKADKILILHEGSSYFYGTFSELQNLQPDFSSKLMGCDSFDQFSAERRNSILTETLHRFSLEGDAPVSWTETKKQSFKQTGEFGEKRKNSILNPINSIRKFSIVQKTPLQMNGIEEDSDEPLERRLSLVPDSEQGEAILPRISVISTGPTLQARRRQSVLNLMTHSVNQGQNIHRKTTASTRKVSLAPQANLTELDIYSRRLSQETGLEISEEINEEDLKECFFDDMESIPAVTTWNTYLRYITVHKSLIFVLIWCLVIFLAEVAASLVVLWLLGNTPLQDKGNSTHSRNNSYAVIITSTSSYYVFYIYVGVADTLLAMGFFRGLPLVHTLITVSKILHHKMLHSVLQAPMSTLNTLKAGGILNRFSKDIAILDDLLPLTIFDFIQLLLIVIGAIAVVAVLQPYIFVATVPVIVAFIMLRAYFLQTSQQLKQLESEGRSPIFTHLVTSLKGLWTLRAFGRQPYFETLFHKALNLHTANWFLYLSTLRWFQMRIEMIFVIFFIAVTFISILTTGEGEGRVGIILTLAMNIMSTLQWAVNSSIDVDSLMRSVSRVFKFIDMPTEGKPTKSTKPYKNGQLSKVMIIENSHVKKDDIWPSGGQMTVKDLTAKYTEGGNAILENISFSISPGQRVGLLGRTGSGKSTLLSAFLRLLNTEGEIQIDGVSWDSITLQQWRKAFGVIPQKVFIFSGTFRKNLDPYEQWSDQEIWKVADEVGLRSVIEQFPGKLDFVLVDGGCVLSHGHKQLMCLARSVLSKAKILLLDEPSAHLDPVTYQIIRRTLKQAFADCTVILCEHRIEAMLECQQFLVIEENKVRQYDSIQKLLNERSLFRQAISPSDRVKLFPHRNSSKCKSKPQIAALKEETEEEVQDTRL

With `O=S(=O)(c1ccccc1)c1ccc2nnc(NCC(O)C3CCCCC3)n2c1` (stereo not drawn) [Example 66], the EC50 was less than 1000 nM and the Emax is greater than 80%.
Take `O=S(=O)(c1ccccc1)c1ccc2nc(NC[C@@H](O)c3ccccc3)nn2c1` [Example 85]: the EC50 is less than 1000 nM and the Emax was greater than 80%.
With `CCN(CC)S(=O)(=O)c1ccc2nnc(N[C@@H](C)c3ccc(C)cc3)n2c1` [Example 38], the EC50 is less than 1000 nM and the Emax was greater than 80%.
On the same counts, the results for `CCN(CC)S(=O)(=O)c1ccc2nnc(NC[C@H]3CCCO3)n2c1` [Example 23] are greater than 10000 nM and greater than 80%.
The like results for `CCOC(=O)OC(CNc1nnc2ccc(S(=O)(=O)c3ccccc3)cn12)C1CCCCC1` (stereo not drawn) [Example 77] were, in that order, less than 1000 nM and greater than 80%.
Turning to `CCN(CC)S(=O)(=O)c1ccc2nnc(NCCc3ccccc3)n2c1` [Example 25], the EC50 was less than 1000 nM and the Emax is greater than 80%.
On the same counts, the results for `CCN(CC)S(=O)(=O)c1ccc2nnc(NCc3ccc(C)c(C)c3)n2c1` [Example 39] are less than 1000 nM and greater than 80%.
In the case of `O=S(=O)(c1ccccc1)c1ccc2nc(NCC(O)C3CCCCC3)nn2c1` (stereo not drawn) [Example 84], the EC50 lay within 1000 to 10000 nM and the Emax is greater than 80%.
In the case of `CCN(CC)S(=O)(=O)c1ccc2nnc(NC(C)CC(C)C)n2c1` (stereo not drawn) [Example 42], the EC50 was less than 1000 nM and the Emax is greater than 80%.
Consider `O=C(CNc1nnc2ccc(S(=O)(=O)c3ccccc3)cn12)C1CCCCC1` [Example 79], for which the EC50 lay in the range of 1000 to 10000 nM and the Emax is greater than 80%.
For the compound `O=S(=O)(c1ccccc1)c1ccc2nnc(NC[C@H](O)C3CCCCC3)n2c1` [Example 69], the EC50 was less than 1000 nM and the Emax was greater than 80%.
Take `O=S(=O)(c1ccccc1)c1ccc2nnc(NCC(O)C3CCCCCC3)n2c1` (stereo not drawn) [Example 78]: the EC50 is less than 1000 nM and the Emax was greater than 80%.
Turning to `CCN(CC)S(=O)(=O)c1ccc2nnc(NCc3ccc(C)cc3)n2c1` [Example 9], the EC50 was less than 1000 nM and the Emax was greater than 80%.
As to `Cc1ccc([C@@H](C)Nc2nc3ccc(S(=O)(=O)c4ccccc4)cn3n2)cc1` [Example 90], the EC50 was 1000 to 10000 nM and the Emax lay in the range of 40 to 80%.
`CCN(CC)S(=O)(=O)c1ccc2nnc(N[C@@H](c3ccccc3)C(C)C)n2c1` [Example 51]: the EC50 is less than 1000 nM and the Emax is greater than 80%.
Regarding `COc1ccc(S(=O)(=O)Nc2ccc3nnc(NCc4ccccc4)n3c2)cc1` [Example 59, N-(3-(Benzylamino)-[1,2,4]triazolo[4,3-a]pyridine-6-yl)-4-methoxybenzenesulfonamide], the EC50 was less than 1000 nM and the Emax was 40 to 80%.
Take `CCN(CC)S(=O)(=O)c1ccc2nnc(N[C@@H](C)c3ccccc3)n2c1` [Example 21]: the EC50 is less than 1000 nM and the Emax was greater than 80%.
On the same counts, the results for `CCN(CC)S(=O)(=O)c1ccc2nnc(NCCC(C)C)n2c1` [Example 19] are less than 1000 nM and greater than 80%.
`CCN(CC)S(=O)(=O)c1ccc2nnc(NCc3ccc(C(F)(F)F)cc3)n2c1` [Example 48]: the EC50 is less than 1000 nM and the Emax was greater than 80%.
Consider `Cc1ccc(CNc2nc3ccc(S(=O)(=O)N4CCCCC4)cn3n2)cc1` [Example 102], for which the EC50 was less than 1000 nM and the Emax is greater than 80%.
Regarding `CCN(CC)S(=O)(=O)c1ccc2nnc(N[C@H](C)c3ccc(C)cc3)n2c1` [Example 35], the EC50 is less than 1000 nM and the Emax is greater than 80%.
Regarding `O=S(=O)(c1ccccc1)c1ccc2nc(NCc3ccc(C4CCOCC4)cc3)nn2c1` [Example 92], the EC50 lay within 1000 to 10000 nM and the Emax lay in the range of 40 to 80%.
As to `O=S(=O)(c1ccccc1)c1ccc2nc(NCc3cccc(C(F)(F)F)c3)nn2c1` [Example 82], the EC50 was less than 1000 nM and the Emax is greater than 80%.
On to `C[C@@H](Nc1nnc2ccc(S(=O)(=O)c3ccc(Cl)cc3)cn12)c1ccccc1` [Example 72], for which the EC50 lay within 1000 to 10000 nM and the Emax was greater than 80%.
Take `CC(C)(C)C(=O)OC(CNc1nnc2ccc(S(=O)(=O)c3ccccc3)cn12)C1CCCCC1` (stereo not drawn) [Example 74]: the EC50 was less than 1000 nM and the Emax is greater than 80%.
Turning to `CCN(CC)S(=O)(=O)c1ccc2nnc(NC3CCOc4ccccc43)n2c1` (stereo not drawn) [Example 44], the EC50 was less than 1000 nM and the Emax is greater than 80%.
For `CCN(CC)S(=O)(=O)c1ccc2nnc(NC3Cc4ccccc4C3)n2c1` [Example 4], the 50% effective concentration (EC50) was less than 1000 nM and the Emax is greater than 80%.
For `CCN(CC)S(=O)(=O)c1ccc2nnc(NCC(C)(C)C)n2c1` [Example 7], the EC50 was less than 1000 nM and the Emax is 40 to 80%.
As to `CCN(CC)S(=O)(=O)c1ccc2nnc(NCc3ccc(-c4ccccc4)cc3)n2c1` [Example 5], the EC50 was less than 1000 nM and the Emax was greater than 80%.
Regarding `CCN(CC)S(=O)(=O)c1ccc2nnc(NCC3CCCCC3)n2c1` [Example 52], the EC50 is 1000 to 10000 nM and the Emax was greater than 80%.
In the case of `CCN(CC)S(=O)(=O)c1ccc2nnc(NCC(C)(C)OC)n2c1` [Example 31], the EC50 fell in the range of 1000 to 10000 nM and the Emax lay within 40 to 80%.
For the compound `O=S(=O)(c1ccccc1)c1ccc2nc(NCC3CC3)nn2c1` [Example 86], the EC50 was less than 1000 nM and the Emax is greater than 80%.
As to `O=S(=O)(c1ccccc1)c1ccc2nc(NCCC3CCCCC3)nn2c1` [Example 88], the EC50 is less than 1000 nM and the Emax was greater than 80%.
Regarding `O=S(=O)(c1ccccc1)c1ccc2nnc(NCC(O)C3CCCC3)n2c1` (stereo not drawn) [Example 73], the EC50 was less than 1000 nM and the Emax was greater than 80%.
Consider `CCN(CC)S(=O)(=O)c1ccc2nnc(NCc3ccccc3)n2c1C` [Example 61, 3-(Benzylamino)-N,N-diethyl-5-methyl-[1,2,4]triazolo[4,3-a]pyridine-6-sulfonamide], for which the EC50 lay within 1000 to 10000 nM and the Emax was in the range of 10 to 40%.
The like results for `O=S(=O)(c1ccccc1)c1ccc2nc(NC3Cc4ccccc4C3)nn2c1` [Example 80, N-(2,3-dihydro-1H-inden-2-yl)-6-(phenylsulfonyl)-[1,2,4]triazolo[1,5-a]pyridin-2-amine] were, in that order, less than 1000 nM and greater than 80%.
On the same counts, the results for `CCN(CC)S(=O)(=O)c1ccc2nnc(NC(=O)c3ccccc3)n2c1` [Example 12] are 1000 to 10000 nM and 40 to 80%.
Take `CCN(CC)S(=O)(=O)c1ccc2nnc(NCc3cccnc3)n2c1` [Example 15]: the EC50 was greater than 10000 nM and the Emax lay in the range of 40 to 80%.
As to `CCN(CC)S(=O)(=O)c1ccc2nnc(NC(C)c3ccc(C)cc3)n2c1` (stereo not drawn) [Example 27], the EC50 is less than 1000 nM and the Emax is greater than 80%.
On the same counts, the results for `CCC(Nc1nnc2ccc(S(=O)(=O)N(CC)CC)cn12)c1ccccc1` (stereo not drawn) [Example 29] are less than 1000 nM and greater than 80%.
For `O=S(=O)(c1ccccc1)c1ccc2nnc(NC3Cc4ccccc4C3)n2c1` [Example 64], the EC50 is less than 1000 nM and the Emax is greater than 80%.
For the compound `CCN(CC)S(=O)(=O)c1ccc2nnc(NC3CCCc4ccccc43)n2c1` (stereo not drawn) [Example 2], the EC50 was less than 1000 nM and the Emax is greater than 80%.
